Measured values taken from ChEMBL document CHEMBL1201862, “PubChem BioAssay data set” (2004).
Active and inactive are the calls of the source.

Legend:
[1] = growth suppression of beta-catenin-knockout colon cells, dose response, cell-based, HCT116, human colon tumor (AID 1045); format: functional;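 further: HCT116 colon tumor cells with beta catenin knocked out; cells exposed to compound for 60 hours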
[2] = THP-1 cell cytotoxicity, dose response, cytotoxicity control for non-replicating M. tuberculosis project (AID 489025); format: functional
cells = format: functional
[3] = growth suppression of PTEN-null colon cells, dose response, cell-based, HCT116 PTEN knockout (AID 1047); format: functional;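 further: HCT116 colon tumor cells with PTEN knocked out; cells exposed to compound for 60 hours before readout; potency for loss of cell viability measured by luminescence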
[4] = Vero E6 cell cytotoxicity, dose response, cytotoxicity control for non-replicating M. tuberculosis project, secondary assay (AID 492998); format: functional, VeroE6; settings: Vero C1008
[5] = biological target: T1, Short transient receptor potential channel 4 (Mus musculus, UniProt Q9QUQ5); test: mouse TRPC4 channel inhibitors, dose response, cell-based, HEK293 TRPC4/mu-opioid, Fluo-4 calcium (AID 434942); format: functional;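 further: potency of inhibitors blocking the TRPC4 calcium response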
T1 sequence (Q9QUQ5 whole entry): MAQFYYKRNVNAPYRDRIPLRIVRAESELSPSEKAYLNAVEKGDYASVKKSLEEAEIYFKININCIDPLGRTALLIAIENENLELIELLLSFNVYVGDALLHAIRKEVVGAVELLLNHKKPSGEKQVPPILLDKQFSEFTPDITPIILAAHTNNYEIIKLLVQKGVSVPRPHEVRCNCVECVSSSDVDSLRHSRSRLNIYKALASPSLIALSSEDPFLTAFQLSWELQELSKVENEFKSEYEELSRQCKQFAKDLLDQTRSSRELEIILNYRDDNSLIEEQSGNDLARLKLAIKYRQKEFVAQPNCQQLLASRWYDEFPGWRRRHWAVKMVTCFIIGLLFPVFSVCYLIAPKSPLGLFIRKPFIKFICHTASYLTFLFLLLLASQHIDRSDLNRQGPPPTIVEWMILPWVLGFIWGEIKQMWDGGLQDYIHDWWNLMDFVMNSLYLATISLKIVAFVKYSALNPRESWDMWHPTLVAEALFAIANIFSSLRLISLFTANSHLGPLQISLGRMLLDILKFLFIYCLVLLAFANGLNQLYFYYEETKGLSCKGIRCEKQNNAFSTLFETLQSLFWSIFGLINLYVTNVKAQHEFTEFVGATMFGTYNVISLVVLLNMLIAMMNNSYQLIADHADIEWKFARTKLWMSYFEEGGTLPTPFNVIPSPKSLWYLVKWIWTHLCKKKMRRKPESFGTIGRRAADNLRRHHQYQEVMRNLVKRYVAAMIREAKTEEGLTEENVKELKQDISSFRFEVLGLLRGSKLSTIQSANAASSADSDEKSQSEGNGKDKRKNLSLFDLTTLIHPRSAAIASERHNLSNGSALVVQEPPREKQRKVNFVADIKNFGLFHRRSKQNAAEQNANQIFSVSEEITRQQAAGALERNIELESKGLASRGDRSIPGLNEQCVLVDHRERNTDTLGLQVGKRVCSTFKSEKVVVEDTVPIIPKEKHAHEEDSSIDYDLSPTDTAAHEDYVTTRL

[6] = biological target: T1, Short transient receptor potential channel 4; test: mouse TRPC4 channel activators, dose response, cell-based, HEK293 TRPC4/mu-opioid, Fluo-4 calcium (AID 434937); format: functional
Leucine aminopeptidase = biological target: T2, Leucine aminopeptidase (Plasmodium falciparum 3D7, UniProt Q8IL11); test: P. falciparum M17LAP inhibitors, primary screen, biochemical, fluorogenic H-Leu-NHMec substrate, 1536-well (AID 1619); format: functional
T2 sequence (Q8IL11 whole entry): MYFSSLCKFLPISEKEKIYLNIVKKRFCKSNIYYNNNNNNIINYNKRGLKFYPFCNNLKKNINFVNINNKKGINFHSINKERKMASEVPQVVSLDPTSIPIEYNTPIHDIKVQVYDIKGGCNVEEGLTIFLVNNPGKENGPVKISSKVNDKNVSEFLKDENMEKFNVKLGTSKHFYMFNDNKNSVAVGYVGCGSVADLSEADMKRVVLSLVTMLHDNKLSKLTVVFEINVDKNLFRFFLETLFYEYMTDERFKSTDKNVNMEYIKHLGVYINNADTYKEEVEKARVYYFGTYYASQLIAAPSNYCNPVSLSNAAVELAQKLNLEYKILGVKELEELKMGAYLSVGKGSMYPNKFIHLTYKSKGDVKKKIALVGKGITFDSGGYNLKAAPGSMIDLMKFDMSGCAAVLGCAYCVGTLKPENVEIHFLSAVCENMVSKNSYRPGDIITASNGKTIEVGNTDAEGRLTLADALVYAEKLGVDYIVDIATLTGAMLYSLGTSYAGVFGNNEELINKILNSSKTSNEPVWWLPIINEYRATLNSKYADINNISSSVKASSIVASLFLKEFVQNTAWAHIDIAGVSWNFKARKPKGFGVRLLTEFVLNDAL

Aminopeptidase N = biological target: T3, Aminopeptidase N (Plasmodium falciparum FcB1/Columbia, UniProt O96935); test: P. falciparum M1AAP inhibitors, biochemical, fluorogenic H-Leu-NHMec substrate, 1536-well (AID 1445); design: species or system Plasmodium falciparum 3D7, 3D7
T3 sequence (O96935 whole entry): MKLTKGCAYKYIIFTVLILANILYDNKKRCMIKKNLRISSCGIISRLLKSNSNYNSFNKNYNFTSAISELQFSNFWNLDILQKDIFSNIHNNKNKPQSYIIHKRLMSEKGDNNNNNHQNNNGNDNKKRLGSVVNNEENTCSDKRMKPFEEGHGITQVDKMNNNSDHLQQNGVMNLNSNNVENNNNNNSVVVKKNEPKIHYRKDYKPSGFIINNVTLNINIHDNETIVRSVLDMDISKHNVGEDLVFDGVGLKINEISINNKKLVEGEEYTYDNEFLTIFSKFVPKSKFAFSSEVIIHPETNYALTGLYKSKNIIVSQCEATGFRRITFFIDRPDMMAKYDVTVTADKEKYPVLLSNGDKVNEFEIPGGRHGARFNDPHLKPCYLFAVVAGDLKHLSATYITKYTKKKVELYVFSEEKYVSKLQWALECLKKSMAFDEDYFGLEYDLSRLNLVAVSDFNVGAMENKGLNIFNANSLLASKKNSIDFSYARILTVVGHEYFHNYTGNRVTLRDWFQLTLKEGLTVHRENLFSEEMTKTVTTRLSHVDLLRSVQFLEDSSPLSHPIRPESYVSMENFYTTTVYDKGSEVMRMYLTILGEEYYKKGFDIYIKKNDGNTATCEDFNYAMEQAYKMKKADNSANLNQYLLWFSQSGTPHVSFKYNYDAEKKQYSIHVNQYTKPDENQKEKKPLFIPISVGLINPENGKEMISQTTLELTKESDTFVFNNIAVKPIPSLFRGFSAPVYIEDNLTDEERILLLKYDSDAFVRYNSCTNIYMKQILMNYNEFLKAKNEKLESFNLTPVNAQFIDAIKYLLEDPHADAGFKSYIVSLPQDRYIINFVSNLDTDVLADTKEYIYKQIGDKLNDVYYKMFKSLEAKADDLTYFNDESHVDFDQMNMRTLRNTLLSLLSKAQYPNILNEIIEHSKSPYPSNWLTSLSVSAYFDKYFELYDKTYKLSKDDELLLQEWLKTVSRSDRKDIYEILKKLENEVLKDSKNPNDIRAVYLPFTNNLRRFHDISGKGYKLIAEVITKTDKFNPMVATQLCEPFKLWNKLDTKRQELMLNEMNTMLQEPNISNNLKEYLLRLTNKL

Cytochrome P450 3A4 = Cytochrome P450 3A4 (Homo sapiens, UniProt P08684);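 further: CYP3A4 tested as one member of a cytochrome P450 panel screen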
[7] = biological target: DNA dC->dU-editing enzyme APOBEC-3G (Homo sapiens, UniProt Q9HC16); format: functional;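 further: Dose-response counterscreen measuring inhibition of APOBEC3G DNA deaminase activity, run while confirming APOBEC3A inhibitors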
[8] = biological target: DNA dC->dU-editing enzyme APOBEC-3A (Homo sapiens, UniProt P31941); test: Dose Response confirmation of small molecule APOBEC3A DNA Deaminase Inhibitors via a fluorescence-based single-stranded DNA deaminase assay. [Related pubchem assays (depositor defined):AID493011, AID493024]; format: functional
[9] = biological target: FAD-linked sulfhydryl oxidase ALR (Homo sapiens, UniProt P55789); test: inhibitors of human ALR sulfhydryl oxidase, dose response, biochemical, H2O2 detection, luminescence, cherry-pick (AID 493248)
HEK293 [10] = test: NOD2 signaling inhibitors in MDP-stimulated cells, cell-based, uHTS, luminescence (AID 2001); format: functional; settings: Homo sapiens
HEK293 [11] = test: cells; format: functional, cell-based; settings: Homo sapiens
[12] = biological target: Nucleotide-binding oligomerization domain-containing protein 2 (Homo sapiens, UniProt Q9HC29); test: NOD2 signaling inhibitors, cell-based, luminescence, uHTS, HEK293 (AID 1566); format: functional
HEK293 [13] = test: cells; format: functional, cell-based; settings: Homo sapiens; remark: listed apart in the source
HEK293 [14] = test: NOD1 signaling inhibitors, primary screen, cell-based, luminescence, uHTS (AID 1578); format: functional; settings: Homo sapiens
INS1 = test: beta cell apoptosis inhibitors, cytokine rescue, dose response, luminescence, retest (AID 449756); format: functional, cell-based; settings: Rattus norvegicus;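 further: cell death triggered by IL-1 beta plus TNF-alpha plus IFN-gamma mixture; protective hits raise ATP signal compared with cytokine alone wells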
HEK293 [15] = test: cells; format: functional, cell-based; settings: Homo sapiens; remark: listed apart in the source

DNA dC->dU-editing enzyme APOBEC-3G, sequence (Q9HC16 whole entry): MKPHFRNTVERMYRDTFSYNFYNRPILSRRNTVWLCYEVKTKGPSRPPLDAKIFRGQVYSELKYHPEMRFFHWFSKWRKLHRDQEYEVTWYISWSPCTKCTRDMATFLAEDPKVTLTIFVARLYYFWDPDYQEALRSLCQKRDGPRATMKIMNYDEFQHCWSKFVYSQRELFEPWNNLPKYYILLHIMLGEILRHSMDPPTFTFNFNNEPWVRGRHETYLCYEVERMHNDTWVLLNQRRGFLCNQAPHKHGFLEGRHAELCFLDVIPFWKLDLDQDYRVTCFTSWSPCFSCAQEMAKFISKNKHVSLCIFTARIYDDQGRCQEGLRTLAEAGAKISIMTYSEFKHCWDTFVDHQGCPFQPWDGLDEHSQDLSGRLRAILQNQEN
DNA dC->dU-editing enzyme APOBEC-3A, sequence (P31941 whole entry): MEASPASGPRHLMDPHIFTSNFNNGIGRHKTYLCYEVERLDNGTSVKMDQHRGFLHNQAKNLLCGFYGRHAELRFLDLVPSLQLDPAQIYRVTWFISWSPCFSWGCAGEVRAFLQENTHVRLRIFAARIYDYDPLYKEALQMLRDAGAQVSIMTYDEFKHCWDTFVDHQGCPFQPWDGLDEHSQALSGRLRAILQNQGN
Nucleotide-binding oligomerization domain-containing protein 2, sequence (Q9HC29 whole entry, the tested form may be a part): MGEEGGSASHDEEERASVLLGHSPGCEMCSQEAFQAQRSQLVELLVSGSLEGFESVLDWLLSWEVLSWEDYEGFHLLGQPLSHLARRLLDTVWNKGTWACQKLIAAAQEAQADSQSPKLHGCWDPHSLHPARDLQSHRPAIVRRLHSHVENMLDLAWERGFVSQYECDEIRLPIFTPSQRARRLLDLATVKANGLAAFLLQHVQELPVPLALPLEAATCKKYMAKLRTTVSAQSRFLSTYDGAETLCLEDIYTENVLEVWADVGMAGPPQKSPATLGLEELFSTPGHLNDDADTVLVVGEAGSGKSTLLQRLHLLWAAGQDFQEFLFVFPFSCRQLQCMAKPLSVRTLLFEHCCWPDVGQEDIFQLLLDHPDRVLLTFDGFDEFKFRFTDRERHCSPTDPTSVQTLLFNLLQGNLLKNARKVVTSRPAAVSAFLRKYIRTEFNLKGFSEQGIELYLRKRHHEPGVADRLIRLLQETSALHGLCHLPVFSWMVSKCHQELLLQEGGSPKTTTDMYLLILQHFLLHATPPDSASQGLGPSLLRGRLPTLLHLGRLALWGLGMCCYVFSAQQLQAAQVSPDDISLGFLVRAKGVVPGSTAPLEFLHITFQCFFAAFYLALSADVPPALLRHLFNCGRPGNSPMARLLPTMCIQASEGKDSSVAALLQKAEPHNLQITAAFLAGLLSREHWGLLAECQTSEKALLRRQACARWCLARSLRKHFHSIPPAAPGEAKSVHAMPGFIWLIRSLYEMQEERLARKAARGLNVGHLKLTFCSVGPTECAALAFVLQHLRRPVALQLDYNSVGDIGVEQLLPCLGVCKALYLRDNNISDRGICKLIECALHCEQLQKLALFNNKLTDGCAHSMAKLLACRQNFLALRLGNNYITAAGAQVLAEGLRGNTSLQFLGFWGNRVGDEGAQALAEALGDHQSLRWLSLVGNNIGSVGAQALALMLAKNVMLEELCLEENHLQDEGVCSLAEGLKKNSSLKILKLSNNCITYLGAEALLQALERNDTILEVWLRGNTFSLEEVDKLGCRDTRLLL
FAD-linked sulfhydryl oxidase ALR, sequence (P55789 whole entry): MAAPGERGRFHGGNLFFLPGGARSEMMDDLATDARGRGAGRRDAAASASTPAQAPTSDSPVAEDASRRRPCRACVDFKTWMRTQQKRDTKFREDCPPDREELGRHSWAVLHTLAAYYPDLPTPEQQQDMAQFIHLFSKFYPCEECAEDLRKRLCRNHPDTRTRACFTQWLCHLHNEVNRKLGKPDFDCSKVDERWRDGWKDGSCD
Cytochrome P450 3A4, sequence (P08684 whole entry): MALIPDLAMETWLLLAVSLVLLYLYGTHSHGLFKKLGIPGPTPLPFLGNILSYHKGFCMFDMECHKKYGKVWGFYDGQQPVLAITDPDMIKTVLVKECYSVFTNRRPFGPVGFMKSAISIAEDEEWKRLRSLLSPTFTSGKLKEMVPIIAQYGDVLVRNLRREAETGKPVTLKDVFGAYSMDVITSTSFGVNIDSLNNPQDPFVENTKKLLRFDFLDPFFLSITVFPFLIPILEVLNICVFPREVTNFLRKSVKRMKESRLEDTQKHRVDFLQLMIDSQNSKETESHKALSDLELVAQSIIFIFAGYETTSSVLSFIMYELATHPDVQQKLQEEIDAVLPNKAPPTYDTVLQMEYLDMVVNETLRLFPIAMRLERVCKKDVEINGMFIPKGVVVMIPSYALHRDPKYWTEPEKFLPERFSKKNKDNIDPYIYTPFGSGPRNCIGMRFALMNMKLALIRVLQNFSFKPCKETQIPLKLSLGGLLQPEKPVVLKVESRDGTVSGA

Structure (SMILES): COc1ccc(/C=C2\COc3ccccc3C2=O)cc1OC
- EC50 [1]: 7.29 µM (active)
- CC50 [2]: 17.9 µM (active)
- IC50 (cells): 12.8 µM (active)
- EC50 [3]: 7.42 µM (active)
- CC50 [4]: > 20 µM (active)

Structure (SMILES): CCCCC(c1nnnn1CC1CCCO1)N1CCN(Cc2ccccc2)CC1 (centres undefined)
- EC50 [5]: 2.37 µM (active)
- EC50 [6]: 4.73 µM (active)

Structure (SMILES): CSc1nc2nc(-c3ccccc3)cc(O)n2n1
- IC50 (Leucine aminopeptidase): 28.6 µM (active)

Structure (SMILES): COc1cc(OC)c(NC(=O)c2ccc3c(SCC(=O)O)c4c(nc3c2)CCCC4)cc1Cl
- IC50 (Aminopeptidase N): 31.6 µM (active)

Structure (SMILES): O=S(=O)(c1cccc(C(F)(F)F)c1)N1CCC(c2cc(-c3cccc4ccccc34)[nH]n2)CC1
- AC50 (Cytochrome P450 3A4): inconclusive

Structure (SMILES): CCc1ccc(/C=C/c2c[nH]c3ccccc23)[n+](CC)c1
- IC50 [7]: 2.24 µM (active)
- IC50 [8]: 2.33 µM (active)

Structure (SMILES): Nc1n[nH]c(N)c1N=Nc1ccccc1
- AC50 [9]: 6.02 µM (active)
- IC50 (Leucine aminopeptidase): 7.03 µM (active)

Structure (SMILES): Cc1ccc(-c2c(C#N)c(N)n3c(nc4ccccc43)c2C#N)cc1
- IC50 (HEK293 [10]): 6.22 µM (active)
- IC50 (HEK293 [11]): > 20 µM (inactive)
- EC50 [12]: > 20 µM (inactive)
- IC50 (HEK293 [13]): 6.06 µM (active)
- EC50 (HEK293 [14]): 2.11 µM (active)
- AC50 (INS1): 3.86 µM (active)
- IC50 (HEK293 [15]): 11 µM (active)

Structure (SMILES): CCn1nc(NC(=O)COC)c2cc3cc(C)ccc3nc21
- IC50 [7]: 6.5 µM (active)
- IC50 [8]: 5.02 µM (active)

Structure (SMILES): O=C(NCc1cccs1)N[C@@H](Cc1ccccc1)C(=O)O
- IC50 (Leucine aminopeptidase): 57.6 µM (active)
